Columns and labels:
Assay in all cases: relative viability (nuclei count vs DMSO), 5 days (fraction); higher = more cells survive
Tosedostat + Bortezomib = compound: CC(C)C[C@@H](C(=O)N[C@H](C(=O)OC1CCCC1)c1ccccc1)[C@H](O)C(=O)NO [Tosedostat] + CC(C)C[C@H](NC(=O)[C@H](Cc1ccccc1)NC(=O)c1cnccn1)B(O)O [Bortezomib] (partner 0.002 µM)
Summary of the method: (§1)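 For relative viability, nuclei counts in treated wells were divided by those in vehicle wells. Lung cancer cell lines had been pin-tool dosed in 1536-well plates the day after seeding and cultured for 5 days, then fixed and stained in one step (final 0.05% Triton X-100, 1% formaldehyde, 1 ug/ml Hoechst) and imaged at 4×. Doses were one drug alone or a fixed anchor-drug dose plus five library-drug doses (not always all listed) in √10 steps, and values are duplicate-plate medians.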

Tosedostat + Dasatinib = compound: CC(C)C[C@@H](C(=O)N[C@H](C(=O)OC1CCCC1)c1ccccc1)[C@H](O)C(=O)NO [Tosedostat] + Cc1nc(Nc2ncc(C(=O)Nc3c(C)cccc3Cl)s2)cc(N2CCN(CCO)CC2)n1 [Dasatinib] (partner 0.075 µM)
Summary of the method: as §1

[1] = compound: CC1=NN=C(O1)C2=NN=C(C=C2)N3CCC(CC3)OC4=C(C=CC(=C4)F)Cl + CC(=O)Nc1cccc(-n2c(=O)n(C3CC3)c(=O)c3c(Nc4ccc(I)cc4F)n(C)c(=O)c(C)c32)c1 [Trametinib] (partner 0.02 µM)
Summary of the method: as §1

[2] = compound: CC1=NN=C(O1)C2=NN=C(C=C2)N3CCC(CC3)OC4=C(C=CC(=C4)F)Cl + COc1cc2c(Oc3ccc(NC(=O)C4(C(=O)Nc5ccc(F)cc5)CC4)cc3F)ccnc2cc1OCCCN1CCOCC1 [Foretinib] (partner 0.25 µM)
Summary of the method: as §1

NCI-H2085
relative viability (Tosedostat + Bortezomib; first compound 0.02 µM): 1.22 | relative viability (Tosedostat + Bortezomib; first compound 0.06325 µM): 1.14 | relative viability (Tosedostat + Bortezomib; first compound 0.2 µM): 1.07 | relative viability (Tosedostat + Bortezomib; first compound 0.6325 µM): 1.03 | relative viability (Tosedostat + Bortezomib; first compound 2 µM): 0.977 | relative viability (Tosedostat + Dasatinib; first compound 0.02 µM): 0.205 | relative viability (Tosedostat + Dasatinib; first compound 0.06325 µM): 0.234 | relative viability (Tosedostat + Dasatinib; first compound 0.2 µM): 0.256 | relative viability (Tosedostat + Dasatinib; first compound 0.6325 µM): 0.276 | relative viability (Tosedostat + Dasatinib; first compound 2 µM): 0.307 | relative viability ([1]; first compound 0.253 µM): 0.326 | relative viability ([1]; first compound 0.8 µM): 0.514 | relative viability ([1]; first compound 2.53 µM): 0.423 | relative viability ([1]; first compound 8 µM): 0.363 | relative viability ([2]; first compound 0.253 µM): 0.808 | relative viability ([2]; first compound 2.53 µM): 0.744 | relative viability ([2]; first compound 8 µM): 0.698

CAL-12T
relative viability (Tosedostat + Bortezomib; first compound 0.02 µM): 0.987 | relative viability (Tosedostat + Bortezomib; first compound 0.06325 µM): 0.897 | relative viability (Tosedostat + Bortezomib; first compound 0.2 µM): 0.966 | relative viability (Tosedostat + Bortezomib; first compound 0.6325 µM): 0.85 | relative viability (Tosedostat + Bortezomib; first compound 2 µM): 0.549 | relative viability (Tosedostat + Dasatinib; first compound 0.02 µM): 0.316 | relative viability (Tosedostat + Dasatinib; first compound 0.06325 µM): 0.489 | relative viability (Tosedostat + Dasatinib; first compound 0.2 µM): 0.472 | relative viability (Tosedostat + Dasatinib; first compound 0.6325 µM): 0.381 | relative viability (Tosedostat + Dasatinib; first compound 2 µM): 0.217 | relative viability ([1]; first compound 0.253 µM): 0.337 | relative viability ([1]; first compound 0.8 µM): 0.313 | relative viability ([1]; first compound 2.53 µM): 0.255 | relative viability ([1]; first compound 8 µM): 0.217 | relative viability ([2]; first compound 0.253 µM): 0.965 | relative viability ([2]; first compound 0.8 µM): 0.964 | relative viability ([2]; first compound 2.53 µM): 0.879 | relative viability ([2]; first compound 8 µM): 0.777

NCI-H1623
relative viability (Tosedostat + Dasatinib; first compound 0.02 µM): 0.585 | relative viability (Tosedostat + Dasatinib; first compound 0.06325 µM): 0.542 | relative viability (Tosedostat + Dasatinib; first compound 0.2 µM): 0.607 | relative viability (Tosedostat + Dasatinib; first compound 0.6325 µM): 0.552 | relative viability (Tosedostat + Dasatinib; first compound 2 µM): 0.601 | relative viability ([2]; first compound 0.253 µM): 0.717 | relative viability ([2]; first compound 0.8 µM): 0.669 | relative viability ([2]; first compound 2.53 µM): 0.771 | relative viability ([2]; first compound 8 µM): 0.781

HCC-44
relative viability (Tosedostat + Bortezomib; first compound 0.02 µM): 0.886 | relative viability (Tosedostat + Bortezomib; first compound 0.06325 µM): 0.883 | relative viability (Tosedostat + Bortezomib; first compound 0.2 µM): 0.937 | relative viability (Tosedostat + Bortezomib; first compound 0.6325 µM): 0.793 | relative viability (Tosedostat + Bortezomib; first compound 2 µM): 0.459 | relative viability ([1]; first compound 0.253 µM): 0.608 | relative viability ([1]; first compound 0.8 µM): 0.994 | relative viability ([1]; first compound 2.53 µM): 0.945 | relative viability ([1]; first compound 8 µM): 0.856

EKVX
relative viability (Tosedostat + Bortezomib; first compound 0.02 µM): 0.974 | relative viability (Tosedostat + Bortezomib; first compound 0.06325 µM): 0.995 | relative viability (Tosedostat + Bortezomib; first compound 0.2 µM): 1.03 | relative viability (Tosedostat + Bortezomib; first compound 0.6325 µM): 0.946 | relative viability (Tosedostat + Bortezomib; first compound 2 µM): 0.823 | relative viability (Tosedostat + Dasatinib; first compound 0.02 µM): 0.586 | relative viability (Tosedostat + Dasatinib; first compound 0.06325 µM): 0.565 | relative viability (Tosedostat + Dasatinib; first compound 0.2 µM): 0.548 | relative viability (Tosedostat + Dasatinib; first compound 0.6325 µM): 0.588 | relative viability (Tosedostat + Dasatinib; first compound 2 µM): 0.512 | relative viability ([1]; first compound 0.253 µM): 0.26 | relative viability ([1]; first compound 0.8 µM): 0.254 | relative viability ([1]; first compound 2.53 µM): 0.26 | relative viability ([1]; first compound 8 µM): 0.286 | relative viability ([2]; first compound 0.253 µM): 0.41 | relative viability ([2]; first compound 0.8 µM): 0.382 | relative viability ([2]; first compound 2.53 µM): 0.382 | relative viability ([2]; first compound 8 µM): 0.36

NCI-H1734
relative viability (Tosedostat + Bortezomib; first compound 0.02 µM): 1.07 | relative viability (Tosedostat + Bortezomib; first compound 0.06325 µM): 0.942 | relative viability (Tosedostat + Bortezomib; first compound 0.2 µM): 0.907 | relative viability (Tosedostat + Bortezomib; first compound 0.6325 µM): 0.89 | relative viability (Tosedostat + Bortezomib; first compound 2 µM): 0.786 | relative viability (Tosedostat + Dasatinib; first compound 0.02 µM): 0.523 | relative viability (Tosedostat + Dasatinib; first compound 0.06325 µM): 0.477 | relative viability (Tosedostat + Dasatinib; first compound 0.2 µM): 0.436 | relative viability (Tosedostat + Dasatinib; first compound 0.6325 µM): 0.466 | relative viability (Tosedostat + Dasatinib; first compound 2 µM): 0.446 | relative viability ([1]; first compound 0.253 µM): 0.642 | relative viability ([1]; first compound 0.8 µM): 0.652 | relative viability ([1]; first compound 2.53 µM): 0.663 | relative viability ([1]; first compound 8 µM): 0.597 | relative viability ([2]; first compound 0.253 µM): 0.861 | relative viability ([2]; first compound 0.8 µM): 0.857 | relative viability ([2]; first compound 2.53 µM): 0.769 | relative viability ([2]; first compound 8 µM): 0.699

NCI-H1944
relative viability (Tosedostat + Dasatinib; first compound 0.02 µM): 0.226 | relative viability (Tosedostat + Dasatinib; first compound 0.06325 µM): 0.211 | relative viability (Tosedostat + Dasatinib; first compound 0.2 µM): 0.215 | relative viability (Tosedostat + Dasatinib; first compound 0.6325 µM): 0.208 | relative viability (Tosedostat + Dasatinib; first compound 2 µM): 0.194 | relative viability ([1]; first compound 0.253 µM): 0.339 | relative viability ([1]; first compound 0.8 µM): 0.324 | relative viability ([1]; first compound 2.53 µM): 0.37 | relative viability ([1]; first compound 8 µM): 0.342 | relative viability ([2]; first compound 0.253 µM): 0.464 | relative viability ([2]; first compound 0.8 µM): 0.463 | relative viability ([2]; first compound 2.53 µM): 0.473 | relative viability ([2]; first compound 8 µM): 0.498

NCI-H1792
relative viability (Tosedostat + Bortezomib; first compound 0.02 µM): 1.01 | relative viability (Tosedostat + Bortezomib; first compound 0.06325 µM): 0.991 | relative viability (Tosedostat + Bortezomib; first compound 0.2 µM): 0.934 | relative viability (Tosedostat + Bortezomib; first compound 0.6325 µM): 0.952 | relative viability (Tosedostat + Bortezomib; first compound 2 µM): 1 | relative viability (Tosedostat + Dasatinib; first compound 0.02 µM): 0.777 | relative viability (Tosedostat + Dasatinib; first compound 0.06325 µM): 0.756 | relative viability (Tosedostat + Dasatinib; first compound 0.2 µM): 0.743 | relative viability (Tosedostat + Dasatinib; first compound 0.6325 µM): 0.79 | relative viability (Tosedostat + Dasatinib; first compound 2 µM): 0.691 | relative viability ([1]; first compound 0.253 µM): 0.359 | relative viability ([1]; first compound 0.8 µM): 0.398 | relative viability ([1]; first compound 2.53 µM): 0.647 | relative viability ([1]; first compound 8 µM): 0.487

Calu-6
relative viability (Tosedostat + Bortezomib; first compound 0.02 µM): 1.13 | relative viability (Tosedostat + Bortezomib; first compound 0.06325 µM): 0.932 | relative viability (Tosedostat + Bortezomib; first compound 0.2 µM): 0.943 | relative viability (Tosedostat + Bortezomib; first compound 0.6325 µM): 0.851 | relative viability (Tosedostat + Bortezomib; first compound 2 µM): 0.666 | relative viability ([2]; first compound 0.253 µM): 0.602 | relative viability ([2]; first compound 0.8 µM): 0.597 | relative viability ([2]; first compound 2.53 µM): 0.517 | relative viability ([2]; first compound 8 µM): 0.573

EBC-1
relative viability (Tosedostat + Bortezomib; first compound 0.02 µM): 0.538 | relative viability (Tosedostat + Bortezomib; first compound 0.06325 µM): 0.516 | relative viability (Tosedostat + Bortezomib; first compound 0.2 µM): 0.505 | relative viability (Tosedostat + Bortezomib; first compound 0.6325 µM): 0.405 | relative viability (Tosedostat + Bortezomib; first compound 2 µM): 0.334 | relative viability ([2]; first compound 0.253 µM): 0.0917 | relative viability ([2]; first compound 0.8 µM): 0.0957 | relative viability ([2]; first compound 2.53 µM): 0.103 | relative viability ([2]; first compound 8 µM): 0.0946

NCI-H596
relative viability (Tosedostat + Bortezomib; first compound 0.02 µM): 1.32 | relative viability (Tosedostat + Bortezomib; first compound 0.06325 µM): 1.19 | relative viability (Tosedostat + Bortezomib; first compound 0.2 µM): 1 | relative viability (Tosedostat + Bortezomib; first compound 0.6325 µM): 1.12 | relative viability (Tosedostat + Bortezomib; first compound 2 µM): 1.04 | relative viability (Tosedostat + Dasatinib; first compound 0.02 µM): 0.648 | relative viability (Tosedostat + Dasatinib; first compound 0.06325 µM): 0.623 | relative viability (Tosedostat + Dasatinib; first compound 0.2 µM): 0.614 | relative viability (Tosedostat + Dasatinib; first compound 0.6325 µM): 0.656 | relative viability (Tosedostat + Dasatinib; first compound 2 µM): 0.619 | relative viability ([1]; first compound 0.253 µM): 0.687 | relative viability ([1]; first compound 0.8 µM): 0.811 | relative viability ([1]; first compound 2.53 µM): 0.714 | relative viability ([1]; first compound 8 µM): 0.692 | relative viability ([2]; first compound 0.253 µM): 0.71 | relative viability ([2]; first compound 0.8 µM): 0.751 | relative viability ([2]; first compound 2.53 µM): 0.837 | relative viability ([2]; first compound 8 µM): 0.682

Reference: the supplement of paper PMC10307832
